These are literature values, as cited in patent US20040242457A1, “Use of anti-glaucoma drugs to treat visual defects associated with the use of a GABAergic agent” (priority 2003, published 2004).

The conditions of the data set: reports from the literature.

Turning to `C=CC(N)CCC(=O)O` (racemic) [GVG, 4-amino-hex-5-enoic acid], the “patients treated with GVG who develop visual field defects (VFDs)” value was 25-50%.
